From US20100160209A1, “Composition and Method for Increasing Cell Permeability of a Compound” (SmithKline Beecham Corporation, priority 2006, published 2010)
Ends that are not written are not given here. Peptide text beside a SMILES is read from it. * marks the point of attachment. Boc = CC(C)(C)OC(=O)*; OSu = O=C1CCC(=O)N1O*

How the values were obtained:
[1] = solubility in aqueous solutions; format: physicochemical; settings: for CPS-Cys particularly in slightly acidic pH
Text: (§1) Initial synthesis was of the 11-mer CPS peptide in which its C-terminal end was an N-hydroxysuccinimide (NHS) ester. This CPS-OSu peptide was expected to be highly reactive to the amine groups of human insulin and thus facilitate the conjugation reactions between CPS and Insulin. […] As a result, this CPS-OSu activated ester was cyclized via an internal amide bond. To overcome this side-reaction, a derivative of the CPS-OSu peptide in which all three amine groups of this peptide were protected by a Boc group (tert-Butyloxycarbonyl) was also made.
(§2) The 12-mer CPS-Cys peptide Sequence of CPS-Cys Peptide: K-L-K-L-A-L-A-L-A-L-A-C (Seq ID no. 2) was synthesized by conventional solid-phase peptide synthesis methodology. Standard synthesis protocols based on Fmoc chemistry were used. After synthesis, the crude peptides were cleaved from the solid support and purified by C18 reverse-phase HPLC eluted with acetonitrile aqueous buffers. The purified peptide was characterized by analytical HPLC analysis (FIG. 2, top panel) and mass spectrometry analysis (FIG. 2a, bottom panel, calculated MW=1227.6 Da and measured MW (MH+)=1227.9 Da).

stability of the peptide = format: physicochemical; settings: CPS-OSu: reacts with its own amine groups, cyclized via internal amide bond
Text: as §1, §2

CCK-releasing cells = settings: "is said to elicit"; assay of WO 01/41812; cited from earlier work

| Compound | solubility in aqueous solutions [1] | stability of the peptide (stability of the peptide) | increase in CCK secretion (CCK-releasing cells) |
| --- | --- | --- | --- |
| KLKLALALALAC [CPS-Cys peptide, K-L-K-L-A-L-A-L-A-L-A-C] | good solubility | stable |  |
| CC(C)C[C@H](NC(=O)[C@H](C)NC(=O)[C@H](CC(C)C)NC(=O)[C@H](CCCCNC(=O)OC(C)(C)C)NC(=O)[C@H](CC(C)C)NC(=O)[C@H](CCCCNC(=O)OC(C)(C)C)NC(=O)OC(C)(C)C)C(=O)N[C@@H](C)C(=O)N[C@@H](CC(C)C)C(=O)N[C@@H](C)C(=O)N[C@@H](CC(C)C)C(=O)N[C@@H](C)C(=O)ON1C(=O)CCC1=O [amine-protected peptide] (Boc-K(Boc)LK(Boc)LALALALA-OSu) | poor solubility |  |  |
| STFWAYQPDGDNDPTDYQKYEHTSSPSQLLAPGDYPCVIEV (listed as Homo sapiens) [Native LCRF, luminal cholecystokinin releasing factor] |  |  | ~300% |
